Laboratory results: US11104631B1, “Isopentenyl chalcone compound and preparation method thereof” (SOUTH CHINA BOTANICAL GARDEN, CHINESE ACADEMY OF SCIENCES, priority 2018, dated 2021)

Columns and labels:
[1] = DPPH radical scavenging assay; type: biochemical; conditions: 0.2 mM DPPH in ethanol, dark, room temperature, 30 minutes, absorbance at 517 nm; read-out: IC50 value against DPPH radicals
Experimental: DPPH is a stable free radical. When a free radical scavenger is present, light absorption of DPPH will be reduced when the single electron is scavenged, which allows to evaluate free radical scavenging ability of the substance and accordingly determine antioxidant ability thereof. The DPPH radical scavenging ability of the compound 2,2′,4,4′-tetrahydroxy-3′-(2″,3″-dihydroxy-3″-methylbutyl)chalcone was measured through the DPPH radical scavenging assay, so as to evaluate the antioxidant ability of the compound. The assay comprised the following steps: 1,1-Diphenyl-2-picrylhydrazyl (DPPH) was dissolved in absolute ethanol to obtain a solution with a concentration of 0.2 mM. The compound 2,2′,4,4′-tetrahydroxy-3′-(2″,3″-dihydroxy-3″-methylbutyl)chalcone was dissolved in absolute ethanol. 80 μL of the ethanol solution of 2,2′,4,4′-tetrahydroxy-3′-(2″,3″-dihydroxy-3″-methylbutyl)chalcone and 160 μL of the 0.2 mM DPPH ethanol solution were mixed and the mixture was placed in dark at room temperature for 30 minutes. Then, light absorbance at 517 nm was measured using a microplate reader (SpectraMax 190, Molecular Devices, USA), and Vc was employed as a positive control.

Solubility in methanol = type: physicochemical

| Compound | IC50 [1] [µM] | solubility in methanol (Solubility in methanol) |
| --- | --- | --- |
| O=C1O[C@H]([C@@H](O)CO)C(O)=C1O [Vc, vitamin C, reference compound] | 100 |  |
| CC(C)(O)C(O)Cc1c(O)ccc(C(=O)/C=C/c2ccc(O)cc2O)c1O (stereo not drawn) [compound 1, 2,2′,4,4′-tetrahydroxy-3′-(2″,3″-dihydroxy-3″-methylbutyl)chalcone] | 27.6 | easily soluble in methanol |
